Reference: patent US12343328B2, “Dialkyl tryptamines and their therapeutic uses” (CAAMTECH, INC., priority 2020, dated 2025)

Tested on: murine Head Twitch Response
Assay: murine Head Twitch Response (HTR)
Conditions: Mus musculus, read-out: HTR ED50

Row | SMILES | ED50 [µmol/kg]
1 | CN(C)CCc1c[nH]c2cccc(O)c12 [Psilocin] | 0.54
2 | CN(C)CCc1c[nH]c2cccc(OP(=O)(O)O)c12 [Psilocybin] | 1.02
